# Entries after “also recorded” stand apart in the source; their conditions may differ.
# Assays:
# [1] = Diet-induced obesity treatment group: blood chemistry; type: in vivo, C57BL/6 mice
# Procedure: (§1) Wild type male C57BL/6 mice were fed a high fat diet consisting of 45% of calories from fat (D12451 Research Diets Inc., New Brunswick, N.J.) starting at 8 weeks of age for 12-24 weeks, while normal diet C57BL/6 controls were maintained on normal chow diet consisting of 4.5% fat (5002 Lab Diet, Philadelphia, Pa.). Diets containing ω-3 fatty acids were fed as previously described 24. Rosiglitazone treatment was administered for three weeks by addition of the compound to the diet in mice that had been on HFD for 16 weeks. Each mouse consumed on average 3.5 mg/kg rosiglitazone per day. Amlexanox was administered by daily oral gavage. […] Animals were housed in a specific pathogen-free facility with a 12-hour light/12-hour dark cycle and given free access to food and water. All animal use was in compliance with the Institute of Laboratory Animal Research Guide for the Care and Use of Laboratory Animals and approved by the University Committee on Use and Care of Animals at the University of Michigan and UCSD.
# (§2) Blood glucose was measured by OneTouch Ultra Glucometer. Plasma from mice fasted for six hours was isolated from whole blood collected into heparinized tubes. Insulin concentrations were measured by insulin ELISA kit (Crystal Chem Inc., Downers Grove, Ill.). Leptin and adiponectin levels were measured by ELISA kits purchased from Cayman Chem Inc. (Ann Arbor, Mich.). Cytokine levels were quantified utilizing luminex technology in a multianalyte panel plate purchased from Millipore (Billerica, Mass.). Additionally, TNFα levels were measured using ELISA kits purchased from R&D Systems (Minneapolis, Minn.).
# [2] = Established diet-induced obesity treatment group: body weight, food intake, body composition; type: in vivo, C57BL/6 mice
# Procedure: as §1
# The remaining weight of food provided was determined daily for singly housed mice. Daily food consumption was calculated from a three-day average.
# [3] = Ob/ob mice: liver weight, triglycerides, histology; type: in vivo; conditions: 100 mg/kg for 14 weeks
# [4] = Ob/ob mice: body weight, food intake, adipose mass; type: in vivo; conditions: 100 mg/kg
# [5] = Ob/ob mice: blood chemistry (glucose, adiponectin, serum cytokines); type: in vivo
# Procedure: as §1, §2
# [6] = Ob/ob mice: glucose tolerance tests; type: in vivo; conditions: 100 mg/kg
# Procedure: Particular physiological tests were used during the development of the technology provided herein. For example, in some of the experiments described below, subjects were tested for tolerance of injected glucose and insulin according to the methods described in Chiang et al. (“The protein kinase IKKepsilon regulates energy balance in obese mice”, Cell (2009) 138: 961-975, incorporated herein by reference in its entirety for all purposes). In some of the experiments described below, subjects were tested for tolerance of oral glucose. In particular, mice were fasted for 6 hours before the studies. For ob/ob mice, 1.0-1.5 mg/g of glucose was gavaged into mice, and blood glucose was measured with a glucometer (e.g., OneTouch Ultra glucometer). Measurement of triglycerides, mRNA, and cytokines were performed according to the methods described in Chiang et al. (The protein kinase IKKepsilon regulates energy balance in obese mice. Cell (2009) 138: 961-975).
# (§3) For glucose tolerance tests, after a six-hour fast mice were orally gavaged with glucose at a dose of 1.5 g/kg (C57BL/6 mice) or 1.2 g/kg (ob/ob mice). […] Blood glucose was measured at basal, 15, 30, 45, 60, 90, 120 and 180 minutes from tail blood using the One Touch Ultra glucometer (Lifescan, Milpitas, Calif.).
# [7] = Diet-induced obesity treatment group: insulin tolerance test; type: in vivo, C57BL/6 mice
# Procedure: as §1, §3
# [8] = Diet-induced obese mice: energy expenditure (metabolic cages) and core body temperature; type: in vivo, C57BL/6 mice; conditions: 25 mg/kg
# Procedure: The University of Michigan Animal Metabolic Phenotyping Core measured oxygen consumption (VO2), carbon dioxide production (VCO2) and spontaneous motor activity during 3 consecutive days using the Comprehensive Laboratory Monitoring System (CLAMS, Columbus Instruments), an integrated open-circuit calorimeter equipped with an optical beam activity monitoring system. The respiratory quotient was calculated by dividing carbon dioxide production by oxygen consumption. The mean values for light and dark cycles were used to analyze statistical significance.
# Rectal temperature measurements were performed using a YSI 4600 Precision thermometer (YSI, Inc., Yellow Springs, Ohio).
# [9] = system: BAT explants; experiment: Lipid oxidation rate in ex vivo BAT; design: species or system mice; conditions: 5 μM amlexanox, 1 hour
# Procedure: Lipid oxidation was determined by the conversion of 3H-palmitic acid to 3H2O.
# [10] = High fat diet prevention group: oral glucose tolerance test; type: in vivo, C57BL/6 mice; conditions: 25 mg/kg for 8 weeks concurrently with high fat diet
# Procedure: as §1, §3
smiles,measurement,setting,value
"CC(C)c1ccc2oc3nc(N)c(C(=O)O)cc3c(=O)c2c1 [amlexanox, 2-amino-7-isopropyl-5-oxo-5H-chromeno[2,3-b]pyridine-3-carboxylic acid]",fasting serum insulin,[1]; 25 mg/kg for 8 weeks after established diet-induced obesity,reversed elevations
same,decrease in fasting levels of leptin,"[1]; 25 mg/kg, HFD, treatment phase",80%
same,serum cholesterol,"[1]; 25 mg/kg, HFD, treatment phase",unchanged
same,serum free fatty acids,"[1]; 25 mg/kg, HFD, treatment phase",unchanged
same,serum triglycerides,"[1]; 25 mg/kg, HFD, treatment phase",unchanged
same,weight loss,"[2]; 25 mg/kg after 12 weeks of 45% high-fat diet, after 4 weeks of treatment",10 g
same,reduction in overall mass of adipose tissue,"[2]; 25 mg/kg, HFD, treatment phase",> 6 gram
same,time to return to control weights after treatment was stopped,"[2]; withdrawal after 8 weeks of 25 mg/kg treatment, HFD",6-8 weeks
same,large lipid droplets in liver (H & E staining),[3],largely disseminated
same,reduction in liver weight,[3],greater than 20%
same,reduction of triglyceride contents in livers,[3],more than 50%
same,adipose tissue mass,[4],significant decrease
same,weight loss,[4]; after 4 weeks of treatment,7 to 8 g
same,circulating (serum) level of MCP-1,[5]; 100 mg/kg,not significantly affected
same,circulating (serum) level of Rantes,[5]; 100 mg/kg,not significantly affected
same,circulating adiponectin levels,[5]; 100 mg/kg,increase
same,reduction in fasting glucose levels,[5]; 100 mg/kg,25%
same,serum level of IL-1α,[5]; 100 mg/kg,markedly reduced
same,serum level of MIP1α,[5]; 100 mg/kg,markedly reduced
same,serum level of TNFα,[5]; 100 mg/kg,markedly reduced
same,serum level of IL-10,[5]; compared to controls,elevated
same,tolerance to injected glucose,[6]; 5-week period,faster clearance of blood glucose
same,reduction in the area under the curve (oral glucose tolerance),"[6]; 8-week period, relative to control mice",30-40%
same,insulin sensitivity (insulin tolerance test),"[7]; 25 mg/kg, established diet-induced obesity",restoration in insulin responsiveness to normal diet levels
same,insulin sensitivity in normal diet-fed mice,[7]; normal diet,did not affect
same,body temperature (rectal),[8]; compared to HFD vehicle treated mice,approximate one-degree increase
same,exhaled carbon dioxide,"[8]; diet induced obese mice, four-week treatment",significantly increased
same,oxygen consumption (VO2),"[8]; diet induced obese mice, four-week treatment, vs vehicle",significantly increased; also recorded: significantly higher
same,lipid oxidation (3H-palmitic acid to 3H2O),[9],acutely stimulated
same,reduction in the area under the curve for glucose (oral glucose tolerance),[10],30-40%

# Reference: US10245255B2, “Compositions and methods for the treatment of obesity and related disorders” (THE REGENTS OF THE UNIVERSITY OF MICHIGAN, priority 2011, dated 2019)
